Consider two compounds from paper PMC7224190, “Pharmacological inhibition of PRMT7 links arginine monomethylation to the cellular stress response” (Nature Communications, 2020).

In assay [1] the target is T1, MLL1 (Homo sapiens, UniProt Q03164).
T1 construct: gene KMT2A
Kind of assay: biochemical. Also noted: radiometric methyltransferase selectivity assay with tritiated SAM, per cent activity. The following applies: read-out: % of control remaining. The method in brief:
(§1)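 Radiometric methyltransferase assays with ³H-SAM and substrate near apparent Km, compound tested at 1 and 10 μM. Methyl incorporation into biotinylated substrate read by scintillation proximity after guanidine quench; no-compound = 100%, no-enzyme = 0% activity.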

The target in assay [2] is SETDB1 (Homo sapiens, UniProt Q15047). Briefly: biochemical. Also noted: radiometric methyltransferase selectivity assay with tritiated SAM, per cent activity. The following applies: read-out: % of control remaining. The method in brief: as §1
The target in assay [3] is T2, PRMT7 (Homo sapiens, UniProt Q9NVM4).
T2 sequence (Q9NVM4 1-692): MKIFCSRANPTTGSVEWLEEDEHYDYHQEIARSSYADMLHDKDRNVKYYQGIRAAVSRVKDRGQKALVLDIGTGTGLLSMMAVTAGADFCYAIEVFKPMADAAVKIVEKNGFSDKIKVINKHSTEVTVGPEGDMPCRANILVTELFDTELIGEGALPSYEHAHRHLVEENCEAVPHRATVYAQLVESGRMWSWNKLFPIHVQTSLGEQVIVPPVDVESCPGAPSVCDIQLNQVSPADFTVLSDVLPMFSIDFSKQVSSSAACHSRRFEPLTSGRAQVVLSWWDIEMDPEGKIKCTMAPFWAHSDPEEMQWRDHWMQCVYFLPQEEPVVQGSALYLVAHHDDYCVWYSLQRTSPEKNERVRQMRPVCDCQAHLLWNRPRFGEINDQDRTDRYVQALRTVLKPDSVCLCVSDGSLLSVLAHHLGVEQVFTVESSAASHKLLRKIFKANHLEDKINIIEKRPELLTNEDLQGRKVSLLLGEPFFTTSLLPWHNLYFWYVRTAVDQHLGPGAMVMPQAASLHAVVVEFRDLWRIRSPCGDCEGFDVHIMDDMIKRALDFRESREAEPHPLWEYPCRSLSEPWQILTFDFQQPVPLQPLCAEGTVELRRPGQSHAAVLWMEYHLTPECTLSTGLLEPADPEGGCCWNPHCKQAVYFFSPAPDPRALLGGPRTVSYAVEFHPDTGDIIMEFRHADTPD
Briefly: radiometric SPA methyltransferase assay (negative control compound, weak). In kind it is biochemical.

T1 sequence (Q03164 whole entry): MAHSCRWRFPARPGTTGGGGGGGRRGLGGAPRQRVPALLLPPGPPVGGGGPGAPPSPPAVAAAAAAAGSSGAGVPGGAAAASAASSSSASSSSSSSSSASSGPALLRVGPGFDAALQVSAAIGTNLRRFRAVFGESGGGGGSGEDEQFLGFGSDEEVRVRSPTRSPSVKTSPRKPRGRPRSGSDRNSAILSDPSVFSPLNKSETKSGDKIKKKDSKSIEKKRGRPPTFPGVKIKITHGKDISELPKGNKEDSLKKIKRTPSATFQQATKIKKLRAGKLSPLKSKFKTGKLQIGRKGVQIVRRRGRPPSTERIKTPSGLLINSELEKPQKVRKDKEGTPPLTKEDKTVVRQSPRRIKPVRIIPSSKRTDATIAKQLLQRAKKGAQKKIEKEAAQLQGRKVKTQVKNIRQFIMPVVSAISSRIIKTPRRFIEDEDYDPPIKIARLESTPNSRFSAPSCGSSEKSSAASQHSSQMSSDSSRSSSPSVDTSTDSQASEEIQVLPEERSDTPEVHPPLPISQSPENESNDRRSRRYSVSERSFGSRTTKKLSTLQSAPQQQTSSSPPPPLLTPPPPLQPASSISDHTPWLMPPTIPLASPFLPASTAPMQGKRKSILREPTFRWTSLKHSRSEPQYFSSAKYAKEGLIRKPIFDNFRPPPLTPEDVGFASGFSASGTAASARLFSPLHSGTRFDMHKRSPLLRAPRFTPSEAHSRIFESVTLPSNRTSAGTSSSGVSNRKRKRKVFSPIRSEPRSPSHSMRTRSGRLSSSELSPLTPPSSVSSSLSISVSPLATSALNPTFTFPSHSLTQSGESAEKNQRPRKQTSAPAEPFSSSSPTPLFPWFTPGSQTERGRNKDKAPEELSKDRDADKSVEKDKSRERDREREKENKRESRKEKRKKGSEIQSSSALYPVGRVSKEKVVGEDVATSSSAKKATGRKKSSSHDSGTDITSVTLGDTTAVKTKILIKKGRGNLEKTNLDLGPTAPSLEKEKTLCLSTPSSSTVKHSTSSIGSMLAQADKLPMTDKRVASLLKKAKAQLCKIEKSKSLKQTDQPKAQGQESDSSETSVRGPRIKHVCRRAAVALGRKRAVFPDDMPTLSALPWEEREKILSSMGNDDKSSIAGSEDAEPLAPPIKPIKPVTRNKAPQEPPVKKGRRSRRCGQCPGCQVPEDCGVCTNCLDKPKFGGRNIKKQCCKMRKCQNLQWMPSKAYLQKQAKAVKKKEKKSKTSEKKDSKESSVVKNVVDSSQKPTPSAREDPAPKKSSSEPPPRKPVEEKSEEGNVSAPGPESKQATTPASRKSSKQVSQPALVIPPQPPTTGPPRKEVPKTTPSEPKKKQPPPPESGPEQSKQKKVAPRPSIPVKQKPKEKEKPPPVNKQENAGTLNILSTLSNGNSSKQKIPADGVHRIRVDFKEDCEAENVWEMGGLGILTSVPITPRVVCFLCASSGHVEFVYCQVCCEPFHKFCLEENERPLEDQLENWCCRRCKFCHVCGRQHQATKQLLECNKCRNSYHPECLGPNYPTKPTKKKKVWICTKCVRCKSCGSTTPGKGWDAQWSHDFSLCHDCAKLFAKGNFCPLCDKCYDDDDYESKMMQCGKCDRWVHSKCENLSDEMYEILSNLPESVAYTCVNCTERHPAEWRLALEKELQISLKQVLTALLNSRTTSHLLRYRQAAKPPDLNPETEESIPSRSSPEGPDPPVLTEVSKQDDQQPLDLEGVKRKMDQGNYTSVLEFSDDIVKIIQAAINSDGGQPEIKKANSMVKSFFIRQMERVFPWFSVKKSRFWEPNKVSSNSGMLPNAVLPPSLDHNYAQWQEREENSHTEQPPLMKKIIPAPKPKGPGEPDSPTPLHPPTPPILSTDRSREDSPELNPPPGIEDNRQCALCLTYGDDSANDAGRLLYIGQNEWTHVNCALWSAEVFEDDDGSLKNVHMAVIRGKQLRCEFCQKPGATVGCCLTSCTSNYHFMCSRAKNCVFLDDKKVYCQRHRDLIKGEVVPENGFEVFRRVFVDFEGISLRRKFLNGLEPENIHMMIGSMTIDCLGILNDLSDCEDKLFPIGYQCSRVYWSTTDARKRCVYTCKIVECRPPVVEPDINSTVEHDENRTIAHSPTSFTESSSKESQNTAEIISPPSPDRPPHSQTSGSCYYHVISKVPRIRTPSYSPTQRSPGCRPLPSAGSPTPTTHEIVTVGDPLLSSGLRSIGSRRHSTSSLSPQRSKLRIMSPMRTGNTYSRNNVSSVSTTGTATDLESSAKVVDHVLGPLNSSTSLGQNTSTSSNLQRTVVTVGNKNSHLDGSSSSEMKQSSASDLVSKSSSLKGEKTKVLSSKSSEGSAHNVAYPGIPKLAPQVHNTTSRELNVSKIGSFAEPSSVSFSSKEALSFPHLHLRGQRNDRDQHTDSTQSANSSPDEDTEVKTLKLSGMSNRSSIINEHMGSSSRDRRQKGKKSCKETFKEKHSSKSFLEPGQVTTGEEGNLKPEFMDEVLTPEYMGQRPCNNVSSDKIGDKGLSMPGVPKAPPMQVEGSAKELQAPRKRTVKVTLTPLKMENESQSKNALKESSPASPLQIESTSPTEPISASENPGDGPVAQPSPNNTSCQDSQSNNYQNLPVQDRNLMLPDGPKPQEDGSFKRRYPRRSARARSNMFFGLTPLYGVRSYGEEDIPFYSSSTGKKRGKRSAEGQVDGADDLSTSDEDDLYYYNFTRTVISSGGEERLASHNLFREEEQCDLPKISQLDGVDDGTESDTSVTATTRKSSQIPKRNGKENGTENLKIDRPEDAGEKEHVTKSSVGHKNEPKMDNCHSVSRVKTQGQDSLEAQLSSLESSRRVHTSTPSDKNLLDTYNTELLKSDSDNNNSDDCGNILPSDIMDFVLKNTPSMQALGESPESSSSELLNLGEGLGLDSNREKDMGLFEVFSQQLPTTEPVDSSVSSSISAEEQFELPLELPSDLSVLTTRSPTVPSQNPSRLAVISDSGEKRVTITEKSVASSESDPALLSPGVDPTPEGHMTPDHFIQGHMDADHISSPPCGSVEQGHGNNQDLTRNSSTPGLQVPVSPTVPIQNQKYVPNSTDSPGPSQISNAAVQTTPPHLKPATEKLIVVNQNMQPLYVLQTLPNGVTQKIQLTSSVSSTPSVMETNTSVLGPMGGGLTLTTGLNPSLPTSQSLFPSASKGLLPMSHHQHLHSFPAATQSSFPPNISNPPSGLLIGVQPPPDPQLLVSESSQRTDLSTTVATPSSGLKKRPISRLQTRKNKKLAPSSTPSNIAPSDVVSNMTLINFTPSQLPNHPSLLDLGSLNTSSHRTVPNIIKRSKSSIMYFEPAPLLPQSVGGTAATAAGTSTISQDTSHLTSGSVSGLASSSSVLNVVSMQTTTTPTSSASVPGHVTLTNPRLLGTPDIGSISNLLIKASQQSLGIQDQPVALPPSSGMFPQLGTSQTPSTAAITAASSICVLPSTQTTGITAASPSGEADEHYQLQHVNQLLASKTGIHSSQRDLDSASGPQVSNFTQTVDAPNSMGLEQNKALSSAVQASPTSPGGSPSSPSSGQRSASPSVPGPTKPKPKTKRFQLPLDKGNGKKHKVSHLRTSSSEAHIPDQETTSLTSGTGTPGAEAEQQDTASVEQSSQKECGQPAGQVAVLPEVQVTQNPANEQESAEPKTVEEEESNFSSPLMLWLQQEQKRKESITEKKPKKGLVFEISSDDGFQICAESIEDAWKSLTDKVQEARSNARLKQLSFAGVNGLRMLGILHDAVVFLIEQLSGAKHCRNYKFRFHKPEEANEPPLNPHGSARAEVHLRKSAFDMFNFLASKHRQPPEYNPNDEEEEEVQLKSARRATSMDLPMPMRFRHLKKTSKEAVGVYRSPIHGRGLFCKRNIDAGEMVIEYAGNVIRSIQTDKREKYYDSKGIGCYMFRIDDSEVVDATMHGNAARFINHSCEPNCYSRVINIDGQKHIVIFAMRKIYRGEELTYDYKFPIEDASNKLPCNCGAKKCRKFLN

For the compound `CC1(C)O[C@@H]2[C@H](O1)[C@@H](CSCCCCNCc1cccc(-c3ccc(Cl)cc3)c1)O[C@H]2n1cnc2c(N)ncnc21` [SGC8158N], in assay [1], the remaining activity at 1 µM turned out to be 101% and the remaining activity at 10 µM amounted to 98%. Also, in assay [2], the remaining activity at 1 µM is 99% and the remaining activity at 10 µM turned out to be 91%. In assay [3], the IC50 (usually the concentration that inhibits the measured activity by half) came out at 14 ± 2 µM.
Regarding `Nc1ncnc2c1ncn2[C@@H]1O[C@H](CSCCCCNCc2cccc(-c3ccc(Cl)cc3)c2)[C@@H](O)[C@H]1O` [SGC8158], the remaining activity at 1 µM in assay [1] was 106%; in assay [2], 103%. Besides, the remaining activity at 10 µM in assay [1] and in assay [2] was 99% each time.
